Source: the supplement of paper PMC10307832

Key:
Experiment in all cases: relative viability (nuclei count vs DMSO), 5 days (fraction); higher = more cells survive
Trametinib + Tozasertib = compound: CC(=O)Nc1cccc(-n2c(=O)n(C3CC3)c(=O)c3c(Nc4ccc(I)cc4F)n(C)c(=O)c(C)c32)c1 [Trametinib] + Cc1cc(Nc2cc(N3CCN(C)CC3)nc(Sc3ccc(NC(=O)C4CC4)cc3)n2)n[nH]1 [Tozasertib] (partner 0.1 µM)
Summary of the method: (§1)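 For relative viability, nuclei counts in treated wells were divided by those in vehicle wells. Lung cancer cell lines had been pin-tool dosed in 1536-well plates the day after seeding and cultured for 5 days, then fixed and stained in one step (final 0.05% Triton X-100, 1% formaldehyde, 1 ug/ml Hoechst) and imaged at 4×. Doses were one drug alone or a fixed anchor-drug dose plus five library-drug doses (not always all listed) in √10 steps, and values are duplicate-plate medians.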

Trametinib + Olaparib = compound: CC(=O)Nc1cccc(-n2c(=O)n(C3CC3)c(=O)c3c(Nc4ccc(I)cc4F)n(C)c(=O)c(C)c32)c1 [Trametinib] + O=C(c1cc(Cc2n[nH]c(=O)c3ccccc23)ccc1F)N1CCN(C(=O)C2CC2)CC1 [Olaparib] (partner 8 µM)
Summary of the method: as §1

[1] = compound: CN1C=C(C2=CC=CC=C21)/C=C\3/C4=C(C=CC=N4)NC3=O + CCNC(=O)c1noc(-c2cc(C(C)C)c(O)cc2O)c1-c1ccc(CN2CCOCC2)cc1 [Luminespib] (partner 0.01 µM)
Summary of the method: as §1

[2] = compound: CN1C=C(C2=CC=CC=C21)/C=C\3/C4=C(C=CC=N4)NC3=O + Cc1nc(Nc2ncc(C(=O)Nc3c(C)cccc3Cl)s2)cc(N2CCN(CCO)CC2)n1 [Dasatinib] (partner 0.075 µM)
Summary of the method: as §1

Row | Cell Line | relative viability (Trametinib + Tozasertib; first compound 0.0025 µM) | relative viability (Trametinib + Tozasertib; first compound 0.007906 µM) | relative viability (Trametinib + Tozasertib; first compound 0.025 µM) | relative viability (Trametinib + Tozasertib; first compound 0.07906 µM) | relative viability (Trametinib + Tozasertib; first compound 0.25 µM) | relative viability (Trametinib + Olaparib; first compound 0.0025 µM) | relative viability (Trametinib + Olaparib; first compound 0.007906 µM) | relative viability (Trametinib + Olaparib; first compound 0.025 µM) | relative viability (Trametinib + Olaparib; first compound 0.07906 µM) | relative viability (Trametinib + Olaparib; first compound 0.25 µM) | relative viability ([1]; first compound 0.02 µM) | relative viability ([1]; first compound 0.06325 µM) | relative viability ([1]; first compound 0.2 µM) | relative viability ([1]; first compound 0.6325 µM) | relative viability ([1]; first compound 2 µM) | relative viability ([2]; first compound 0.02 µM) | relative viability ([2]; first compound 0.06325 µM) | relative viability ([2]; first compound 0.2 µM) | relative viability ([2]; first compound 0.6325 µM) | relative viability ([2]; first compound 2 µM)
1 | EMC-BAC-2 | 0.369 | 0.354 | 0.41 | 0.457 | 0.328 | 0.638 | 0.623 | 0.617 | 0.69 | 0.476 | 1.19 | 1.18 | 1.29 | 1.17 | 1.19 | 0.356 | 0.323 | 0.32 | 0.332 | 0.407
2 | ChaGo-K-1 | 0.232 | 0.223 | 0.214 | 0.201 | 0.191 | 0.435 | 0.405 | 0.405 | 0.412 | 0.359 | 0.54 | 0.56 | 0.522 | 0.482 | 0.59 | 0.477 | 0.544 | 0.418 | 0.587 | 0.576
3 | NCI-H2023 | 0.232 | 0.262 | 0.26 | 0.232 | 0.199 | 0.492 | 0.448 | 0.419 | 0.447 | 0.294 | 0.899 | 0.602 | 0.763 | 0.914 | 0.527 | 0.638 | 0.566 | 0.349 | 0.458 | 0.381
4 | EKVX | 0.387 | 0.397 | 0.335 | 0.227 | 0.26 | 0.795 | 0.66 | 0.61 | 0.472 | 0.316 | 0.79 | 0.784 | 0.821 | 0.865 | 0.868 | 0.411 | 0.427 | 0.464 | 0.449 | 0.358
5 | NCI-H2085 | 0.721 | 0.598 | 0.551 | 0.561 | 0.621 | 0.766 | 0.659 | 0.558 | 0.638 | 0.615 | 0.454 | 0.412 | 0.436 | 0.411 | 0.485 | 0.248 | 0.273 | 0.195 | 0.227 | 0.204
6 | NCI-H3122 | 0.367 | 0.322 | 0.183 | 0.217 | 0.142 | 0.558 | 0.532 | 0.43 | 0.263 | 0.237 | 0.0819 | 0.0768 | 0.0923 | 0.0892 | 0.0964 | 0.722 | 0.756 | 0.753 | 0.844 | 0.835
7 | HCC-827 | 0.406 | 0.401 | 0.31 | 0.293 | 0.307 | 0.612 | 0.571 | 0.563 | 0.507 | 0.337 | 0.589 | 0.52 |  | 0.59 | 0.756 | 0.296 | 0.354 |  | 0.28 | 0.427
8 | HARA | 0.12 | 0.101 | 0.0849 | 0.108 | 0.0591 | 0.696 | 0.832 | 0.664 | 0.449 | 0.308 | 0.347 | 0.951 |  | 0.558 | 0.676 | 0.313 | 0.265 |  | 0.254 | 0.244
9 | NCI-H441 | 0.647 | 0.677 | 0.523 | 0.461 | 0.525 | 0.601 | 0.614 | 0.535 | 0.483 | 0.389 | 0.341 | 0.341 | 0.296 | 0.513 | 0.36 | 0.541 | 0.638 | 0.548 | 0.538 | 0.677
10 | NCI-H2342 | 0.488 | 0.435 |  | 0.516 | 0.492 | 0.404 | 0.4 | 0.327 | 0.359 | 0.399 | 0.685 | 0.743 | 0.6 | 0.757 | 0.669 | 0.316 | 0.313 | 0.284 | 0.304 | 0.318
11 | SK-MES-1 | 0.955 | 0.921 | 0.745 | 0.466 | 0.361 | 0.841 | 0.737 | 0.546 | 0.373 | 0.245 | 0.777 | 0.557 | 0.62 | 0.684 | 0.699 | 0.271 | 0.322 | 0.279 | 0.305 | 0.353
12 | HCC-15 | 0.345 | 0.234 | 0.161 | 0.148 | 0.15 | 0.766 | 0.39 | 0.447 | 0.369 | 0.3 | 0.172 | 0.344 | 0.303 | 0.353 | 0.36 | 0.53 | 0.577 | 0.565 | 0.544 | 0.496
13 | ABC-1 | 0.169 | 0.153 | 0.154 | 0.148 | 0.158 | 0.821 | 0.725 | 0.977 | 0.752 | 1.13 |  | 0.531 |  | 0.678 | 0.801 | 0.484 | 0.424 | 0.53 | 0.562 | 0.56
14 | EPLC-272H | 0.207 | 0.203 | 0.212 | 0.149 | 0.266 | 0.628 | 0.406 | 0.332 | 0.322 | 0.173 | 0.156 | 0.309 | 0.169 |  | 0.383 | 0.344 | 0.41 | 0.237 |  | 0.355
15 | NCI-H2009 | 0.689 | 0.489 | 0.378 | 0.302 | 0.244 | 0.693 | 0.768 | 0.508 | 0.338 | 0.308 | 0.997 | 1.03 | 1.05 | 1.02 | 1.09 | 0.265 | 0.295 | 0.261 | 0.333 | 0.315
16 | NCI-H661 | 0.365 | 0.378 | 0.432 | 0.389 | 0.404 | 0.718 | 0.704 | 0.633 | 0.637 | 0.564 | 1.06 | 0.875 | 0.946 | 0.973 | 0.917 | 0.892 | 0.827 | 0.626 | 0.819 | 0.853
